Results from ChEMBL document CHEMBL3792365, “Dioxol and dihydrodioxin analogs of 2- and 3-phenylacetonitriles as potent anti-cancer agents with nanomolar activity against a variety of human cancer cells” (2016).

How the values were obtained:
Format in all cases: functional
[1] = Growth inhibition of human Caki1 cells at 10 uM after 48 hrs by sulforhodamine B assay; conditions: CAKI-1, 48 h, values are per cent of control
[2] = Growth inhibition of human UO31 cells at 10 uM after 48 hrs by sulforhodamine B assay; conditions: UO-31, 48 h, values are per cent of control
[3] = Growth inhibition of human DU145 cells at 10 uM after 48 hrs by sulforhodamine B assay; conditions: DU-145, 48 h, values are per cent of control
[4] = Growth inhibition of human UACC62 cells at 10 uM after 48 hrs by sulforhodamine B assay; conditions: UACC-62, 48 h, values are per cent of control
NCI-H460 = assay: Growth inhibition of human NCI-H460 cells at 10 uM after 48 hrs by sulforhodamine B assay; conditions: NCI-H460, 48 h, values are per cent of control
M14 = assay: Growth inhibition of human M14 cells at 10 uM after 48 hrs by sulforhodamine B assay; conditions: M14, 48 h, values are per cent of control
SN12C = assay: Growth inhibition of human SN12C cells at 10 uM after 48 hrs by sulforhodamine B assay; conditions: values are per cent of control
A498 = assay: Growth inhibition of human A498 cells at 10 uM after 48 hrs by sulforhodamine B assay; conditions: A498, 48 h, values are per cent of control
[5] = Growth inhibition of human RXF393 cells at 10 uM after 48 hrs by sulforhodamine B assay; conditions: RXF 393, 48 h, values are per cent of control
[6] = Growth inhibition of human OVCAR4 cells at 10 uM after 48 hrs by sulforhodamine B assay; conditions: OVCAR-4, 48 h, values are per cent of control
[7] = Growth inhibition of human SF295 cells at 10 uM after 48 hrs by sulforhodamine B assay; conditions: SF-295, 48 h, values are per cent of control
SK-MEL-28 = assay: Growth inhibition of human SK-MEL-28 cells at 10 uM after 48 hrs by sulforhodamine B assay; conditions: SK-MEL-28, 48 h, values are per cent of control
[8] = Growth inhibition of human HCT116 cells at 10 uM after 48 hrs by sulforhodamine B assay; conditions: HCT-116, 48 h, values are per cent of control
[9] = Growth inhibition of human OVCAR5 cells at 10 uM after 48 hrs by sulforhodamine B assay; conditions: OVCAR-5, 48 h, values are per cent of control
[10] = Growth inhibition of human IGROV1 cells at 10 uM after 48 hrs by sulforhodamine B assay; conditions: IGROV-1, 48 h, values are per cent of control
NCI-H522 = assay: Growth inhibition of human NCI-H522 cells at 10 uM after 48 hrs by sulforhodamine B assay; conditions: NCI-H522, 48 h, values are per cent of control
[11] = Growth inhibition of human HCT15 cells at 10 uM after 48 hrs by sulforhodamine B assay; conditions: HCT-15, 48 h, values are per cent of control
[12] = Growth inhibition of human TK10 cells at 10 uM after 48 hrs by sulforhodamine B assay; conditions: TK-10, 48 h, values are per cent of control
786-0 = assay: Growth inhibition of human 786-0 cells at 10 uM after 48 hrs by sulforhodamine B assay; conditions: 786-0, 48 h, values are per cent of control
[13] = Growth inhibition of human COLO205 cells at 10 uM after 48 hrs by sulforhodamine B assay; conditions: COLO 205, 48 h, values are per cent of control
T47D = assay: Growth inhibition of human T47D cells at 10 uM after 48 hrs by sulforhodamine B assay; conditions: values are per cent of control
[14] = Growth inhibition of human NCI-ADR-RES cells at 10 uM after 48 hrs by sulforhodamine B assay; conditions: values are per cent of control
K562 = assay: Growth inhibition of human K562 cells at 10 uM after 48 hrs by sulforhodamine B assay; conditions: K562, 48 h, values are per cent of control
HT-29 = assay: Growth inhibition of human HT-29 cells at 10 uM after 48 hrs by sulforhodamine B assay; conditions: HT-29, 48 h, values are per cent of control
[15] = Growth inhibition of human SW620 cells at 10 uM after 48 hrs by sulforhodamine B assay; conditions: SW-620, 48 h, values are per cent of control
A549 = assay: Growth inhibition of human A549/ATCC cells at 10 uM after 48 hrs by sulforhodamine B assay; conditions: A549, 48 h, values are per cent of control
[16] = Growth inhibition of human SF268 cells at 10 uM after 48 hrs by sulforhodamine B assay; conditions: SF-268, 48 h, values are per cent of control
[17] = Growth inhibition of human OVCAR8 cells at 10 uM after 48 hrs by sulforhodamine B assay; conditions: OVCAR-8, 48 h, values are per cent of control
ACHN = assay: Growth inhibition of human ACHN cells at 10 uM after 48 hrs by sulforhodamine B assay; conditions: values are per cent of control
[18] = Growth inhibition of human SF539 cells at 10 uM after 48 hrs by sulforhodamine B assay; conditions: SF-539, 48 h, values are per cent of control
SK-MEL-5 = assay: Growth inhibition of human SK-MEL-5 cells at 10 uM after 48 hrs by sulforhodamine B assay; conditions: SK-MEL-5, 48 h, values are per cent of control
SK-MEL-2 = assay: Growth inhibition of human SK-MEL-2 cells at 10 uM after 48 hrs by sulforhodamine B assay; conditions: SK-MEL-2, 48 h, values are per cent of control
[19] = Growth inhibition of human HCC2998 cells at 10 uM after 48 hrs by sulforhodamine B assay; conditions: HCC 2998, 48 h, values are per cent of control
[20] = Growth inhibition of human LOXIMVI cells at 10 uM after 48 hrs by sulforhodamine B assay; conditions: LOX IMVI, values are per cent of control
NCI-H322M = assay: Growth inhibition of human NCI-H322M cells at 10 uM after 48 hrs by sulforhodamine B assay; conditions: values are per cent of control
[21] = Growth inhibition of human SKOV3 cells at 10 uM after 48 hrs by sulforhodamine B assay; conditions: SK-OV-3, 48 h, values are per cent of control
[22] = Growth inhibition of human SNB75 cells at 10 uM after 48 hrs by sulforhodamine B assay; conditions: SNB-75, 48 h, values are per cent of control
[23] = Growth inhibition of human Hs 578T cells at 10 uM after 48 hrs by sulforhodamine B assay; conditions: values are per cent of control
MDA-MB-231 = assay: Growth inhibition of human MDA-MB-231 cells at 10 uM after 48 hrs by sulforhodamine B assay; conditions: MDA-MB-231, 48 h, values are per cent of control
NCI-H23 = assay: Growth inhibition of human NCI-H23 cells at 10 uM after 48 hrs by sulforhodamine B assay; conditions: NCI-H23, 48 h, values are per cent of control

| SMILES | growth, % of control at 10 µM [1] | growth, % of control at 10 µM [2] | growth, % of control at 10 µM [3] | growth, % of control at 10 µM [4] | growth, % of control at 10 µM (NCI-H460) | growth, % of control at 10 µM (M14) | growth, % of control at 10 µM (SN12C) | growth, % of control at 10 µM (A498) | growth, % of control at 10 µM [5] | growth, % of control at 10 µM [6] | growth, % of control at 10 µM [7] | growth, % of control at 10 µM (SK-MEL-28) | growth, % of control at 10 µM [8] | growth, % of control at 10 µM [9] | growth, % of control at 10 µM [10] | growth, % of control at 10 µM (NCI-H522) | growth, % of control at 10 µM [11] | growth, % of control at 10 µM [12] | growth, % of control at 10 µM (786-0) | growth, % of control at 10 µM [13] | further results |
| --- | --- | --- | --- | --- | --- | --- | --- | --- | --- | --- | --- | --- | --- | --- | --- | --- | --- | --- | --- | --- | --- |
| N#C/C(=C\c1ccc(Cl)cc1Cl)c1ccc2c(c1)OCO2 | 86.9% | 75.1% | 99.3% | 81.9% | 103% | 88.7% | 102% | 101% | 101% | 88.7% | 97.5% | 98.3% | 99.5% | 106% | 97.9% | 75.8% | 82.9% | 90.7% | 91.4% | 99% | growth, % of control at 10 µM (T47D): 76.3%; growth, % of control at 10 µM [14]: 100%; growth, % of control at 10 µM (K562): 76.2%; growth, % of control at 10 µM (HT-29): 89.7%; growth, % of control at 10 µM [15]: 106%; growth, % of control at 10 µM (A549): 92.3%; growth, % of control at 10 µM [16]: 94.4%; growth, % of control at 10 µM [17]: 104%; growth, % of control at 10 µM (ACHN): 102%; growth, % of control at 10 µM [18]: 93.8%; growth, % of control at 10 µM (SK-MEL-5): 98.9%; growth, % of control at 10 µM (SK-MEL-2): 98.9%; growth, % of control at 10 µM [19]: 94.8%; growth, % of control at 10 µM [20]: 103%; growth, % of control at 10 µM (NCI-H322M): 86.4%; growth, % of control at 10 µM [21]: 97.3%; growth, % of control at 10 µM [22]: 76.2%; growth, % of control at 10 µM [23]: 135%; growth, % of control at 10 µM (MDA-MB-231): 119%; growth, % of control at 10 µM (NCI-H23): 96.3% |
| COc1ccc(/C=C(\C#N)c2ccc3c(c2)OCO3)c2ccccc12 | 30.8% | 42.1% | 14.9% | 25.1% | 13.2% | 16.2% | 38.6% | -8.4% | -17.7% | 49.7% | 5.6% | 43.6% | 21.1% | 55.7% | 36.3% | 1.4% | 21.4% | 43.8% | 40.2% | 7.6% | growth, % of control at 10 µM (T47D): 38.2%; growth, % of control at 10 µM [14]: 10.5%; growth, % of control at 10 µM (K562): 19.1%; growth, % of control at 10 µM (HT-29): 10%; growth, % of control at 10 µM [15]: 10.6%; growth, % of control at 10 µM (A549): 31.7%; growth, % of control at 10 µM [16]: 34%; growth, % of control at 10 µM [17]: 29%; growth, % of control at 10 µM (ACHN): 44.7%; growth, % of control at 10 µM [18]: -42.9%; growth, % of control at 10 µM (SK-MEL-5): 19.1%; growth, % of control at 10 µM (SK-MEL-2): 13.1%; growth, % of control at 10 µM [19]: 45.7%; growth, % of control at 10 µM [20]: 35.2%; growth, % of control at 10 µM (NCI-H322M): 34.3%; growth, % of control at 10 µM [21]: 26.9%; growth, % of control at 10 µM [22]: -3.1%; growth, % of control at 10 µM [23]: -14.1%; growth, % of control at 10 µM (MDA-MB-231): 39.4%; growth, % of control at 10 µM (NCI-H23): 49.9% |
